This is an account of results in patent US20260124201A1, “CYCLOPENTANE COMPOUND” (Kissei Pharmaceutical Co., Ltd., priority 2022, published 2026).

Structures are written as SMILES.

This experiment has as its target T1, human OX2R (Homo sapiens, UniProt O43614).
T1 construct: expressed in transfected cells
T1 sequence (O43614 1-444): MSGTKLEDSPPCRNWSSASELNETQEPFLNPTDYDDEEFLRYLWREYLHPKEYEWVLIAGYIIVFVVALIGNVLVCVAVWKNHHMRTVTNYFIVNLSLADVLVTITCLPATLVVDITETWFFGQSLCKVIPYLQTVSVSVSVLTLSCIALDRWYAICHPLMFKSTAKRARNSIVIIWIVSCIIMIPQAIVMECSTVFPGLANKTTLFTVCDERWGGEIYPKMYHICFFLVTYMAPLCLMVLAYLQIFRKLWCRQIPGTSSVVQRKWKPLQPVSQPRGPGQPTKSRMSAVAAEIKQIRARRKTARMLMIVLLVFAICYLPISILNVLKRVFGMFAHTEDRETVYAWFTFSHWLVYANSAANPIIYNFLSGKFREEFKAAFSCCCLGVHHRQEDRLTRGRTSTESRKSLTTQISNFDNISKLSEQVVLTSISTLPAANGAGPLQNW
Put plainly: Measurement of OX2R agonist activity (intracellular calcium concentration change, Fluo4-AM, FDSS 7000). The experiment is classed as cell-based. The conditions noted are these: compound concentration 10 μM; human OX2R-expressing CHO-K1 cells; 1 μM human orexin A peptide = 100%, medium alone = 0%. An excerpt:
The following abbreviations in the description, the figures and the tables have the following meanings, respectively. • AZADOL (registered trademark): 2-Hydroxy-2-azaadamantane • Boc2O: di-tert-butyl dicarbonate • DIPEA: N,N-diisopropylethylamine • DCM: dichloromethane • DMAP: 4-dimethylaminopyridine • DMF: N,N-dimethylformamide • DMSO: dimethylsulfoxide • Deoxo-Fluor: bis(2-methoxyethyl)-aminosulfur trifluoride • HATU: O-(7-azabenzotriazol-1-yl)-N,N,N′,N′-tetramethyluronium hexafluorophosphate • LDA: lithium diisopropylamide • MeCN: acetonitrile • Me4tBuXPhos: 2-di-tert-butylphosphino-3,4,5,6-tetramethyl-2′,4′,6′-triisopropyl-1,1′-biphenyl • MTBE: methyl tert-butyl ether • NMP: N-methylpyrrolidone • PdCl2(PPh3)2: dichlorobis(triphenylphosphine)palladium(II) • Pd(dba)2: bis(dibenzylideneacetone)palladium(0) • Pd2(dba)3: tris(dibenzylideneacetone)dipalladium(0) • Pd(dppf)Cl2: [1,1′-bis(diphenylphosphino)ferrocene]dichloropalladium(II) • Pd(PPh3)4: tetrakis(triphenylphosphine)palladium(0) • TEA: triethylamine • TFA: trifluoroacetic acid • THF: tetrahydrofuran • Xphos: 2-dicyclohexylphosphino-2′,4′,6′-triisopropylbiphenyl • Xphos Pd G3: (2-dicyclohexylphosphino-2′,4′,6′-triisopropyl-1,1′-biphenyl)[2-(2′-amino-1,1′-biphenyl)]palladium(II) methanesulfonic acid salt • 10% Pd/C: Palladium 10% on Carbon (wetted with ca. 55% water) • APS: aminopropylated silica gel • ODS: octadecyl-silylated silica gel • Method A: column chromatography with an aminopropylated silica gel column followed by a silica gel column • Chiral preparative column chromatography: chiral preparative column chromatography using YMC CHIRALART Cellulose-SB • Ref. No.: Reference Example Number • Str.: structural formula • Ex. No.: Example Number • Phys. data: physical data • ^1H-NMR: hydrogen nuclear magnetic resonance spectrum • CDCl3: chloroform-d1 • MS: mass spectrometry (The measured values in the tables were measured by electrospray ionization or multiionization using electrospray ionization-atmospheric pressure chemical ionization.) • Act.: activation rate of test substance at a compound concentration of 10 μM calculated by setting the fluorescence intensity obtained when human orexin A peptide was added at a concentration of 1 μM as 100% and the fluorescence intensity obtained when the medium alone was added as 0% • CHO: Chinese hamster ovary • HEPES: 2-[4-(2-hydroxyethyl)-1-piperazinyl]ethanesulfonic acid
A human OX2R sequence (Accession No. NM_001526.4) was inserted into the multiple cloning site of pcDNA3.4 (Life Technologies Japan Ltd.) to clone a plasmid vector for human OX2R expression. The plasmid was introduced into CHO-K1 cells using Lipofectamine 2000 (Life Technologies Japan Ltd.). Two days later, the transgenic CHO-K1 cells were passaged into 175T flasks and cultured selectively for 6 days. As a selection medium, Ham's F-12 Nutrient Mix (Life Technologies Japan Ltd.), containing Geneticin (registered trademark) (Life Technologies Japan Ltd.) at a final concentration of 1 mg/mL and inactivated fetal bovine serum (Biowest) at a final concentration of 10%, was used. After the selective culture, the cells were reseeded into 96-well plates, and a human OX2R-expressing cell line was obtained by limiting dilution.
The agonist effects of test substances on human OX2R were evaluated using the intracellular calcium concentration-change upon stimulation as an indicator. A day before measurement of the intracellular calcium concentrations, human OX2R-expressing cells suspended in a medium were seeded into 384-well plates at 5×10^3 cells/50 μL/well and cultured overnight in an incubator set at 37° C. and 5% CO2. After incubation, the medium was removed and replaced with 20 μL of a loading buffer. […]
For `CCNC(=O)[C@@]1(Cc2cccc(-c3ccccc3)c2)CC[C@H](NS(C)(=O)=O)C1` (relative stereo) [Example 1, (1R*,3S*)-1-([1,1′-Biphenyl]-3-ylmethyl)-N-ethyl-3-(methylsulfonamido)cyclopentane-1-carboxamide], the “Act. (%): activation rate of test substance” value (“Act. (%): activation rate” for short) was determined as 50%.

In the case of `CON(C)C(=O)[C@@]1(Cc2cccc(-c3ccccc3)c2)CC[C@H](NS(C)(=O)=O)C1` (relative stereo) [Example 2, (1R*,3S*)-1-([1,1′-Biphenyl]-3-ylmethyl)-N-methoxy-N-methyl-3-(methylsulfonamido)cyclopentane-1-carboxamide], the “Act. (%): activation rate” value is listed as 84%.

On to `CON(C)C(=O)[C@@]1(Cc2ccc(F)c(-c3ccccc3F)c2)CC[C@H](NS(C)(=O)=O)C1` (relative stereo) [Example 3, (1R*,3S*)-1-((2′,6-Difluoro-[1,1′-biphenyl]-3-yl)methyl)-N-methoxy-N-methyl-3-(methylsulfonamido)cyclopentane-1-carboxamide], for which the “Act. (%): activation rate” value is 93%.

In the case of `CON(C)C(=O)[C@@]1(Cc2ccc(F)c(-c3ccc(F)cc3)c2)CC[C@H](NS(C)(=O)=O)C1` (relative stereo) [Example 4], the “Act. (%): activation rate” value was 82%. The figure for `CON(C)C(=O)[C@@]1(Cc2ccc(F)c(-c3cc(F)cc(F)c3)c2)CC[C@H](NS(C)(=O)=O)C1` (relative stereo) [Example 5] is 73%; for `CNS(=O)(=O)N[C@H]1CC[C@](Cc2cccc(-c3ccccc3)c2)(C(=O)N(C)OC)C1` (relative stereo) [Example 6, (1R*,3S*)-1-([1,1′-Biphenyl]-3-ylmethyl)-N-methoxy-N-methyl-3-((N-methylsulfamoyl)amino)cyclopentane-1-carboxamide] it is 92%. The figure for `CS(=O)(=O)N[C@H]1CC[C@](Cc2cccc(-c3ccccc3)c2)(C(=O)N2CCCO2)C1` (relative stereo) [Example 7, N-((1S*,3R*)-3-([1,1′-Biphenyl]-3-ylmethyl)-3-(isoxazolidine-2-carbonyl)cyclopentyl)methanesulfonamide] is 70%; for `C[C@H]1CCCN1C(=O)[C@@]1(Cc2cccc(-c3ccccc3)c2)CC[C@H](NS(C)(=O)=O)C1` (relative stereo) [Example 8] it is 75%; for `C[C@@H]1CCCN1C(=O)[C@@]1(Cc2cccc(-c3ccccc3)c2)CC[C@H](NS(C)(=O)=O)C1` (relative stereo) [Example 9] it is 58%. The figure for `CON(C)C(=O)[C@@]1(Cc2cccc(-c3ccccc3C#N)c2)CC[C@H](NS(C)(=O)=O)C1` (relative stereo) [Example 10, (1R*,3S*)-1-((2′-Cyano-[1,1′-biphenyl]-3-yl)methyl)-N-methoxy-N-methyl-3-(methylsulfonamido)cyclopentane-1-carboxamide] is 41%; for `CON(C)C(=O)[C@@]1(Cc2cccc(-c3ccccc3O)c2)CC[C@H](NS(C)(=O)=O)C1` (relative stereo) [Example 11] it is 71%.

For `CON(C)C(=O)[C@@]1(Cc2cccc(-c3ccc(F)cn3)c2)CC[C@H](NS(C)(=O)=O)C1` (relative stereo) [Example 12, (1R*,3S*)-1-(3-(5-Fluoropyridin-2-yl)benzyl)-N-methoxy-N-methyl-3-(methylsulfonamido)cyclopentane-1-carboxamide], the “Act. (%): activation rate” value turned out to be 86%.

For `CON(C)C(=O)[C@@]1(Cc2cccc(-c3nc(C)co3)c2)CC[C@H](NS(C)(=O)=O)C1` (relative stereo) [Example 13], the “Act. (%): activation rate” value amounted to 90%. In the case of `CON(C)C(=O)[C@@]1(Cc2cccc(-c3ccco3)c2)CC[C@H](NS(C)(=O)=O)C1` (relative stereo) [Example 14], the “Act. (%): activation rate” value stood at 93%. The figure for `CON(C)C(=O)[C@@]1(Cc2cccc(-c3ncc(Cl)cn3)c2)CC[C@H](NS(C)(=O)=O)C1` (relative stereo) [Example 15, (1R*,3S*)-1-(3-(5-Chloropyrimidin-2-yl)benzyl)-N-methoxy-N-methyl-3-(methylsulfonamido)cyclopentane-1-carboxamide] is 86%; for `CON(C)C(=O)[C@@]1(Cc2cccc(-c3cscn3)c2)CC[C@H](NS(C)(=O)=O)C1` (relative stereo) [Example 16] it is 91%; for `CON(C)C(=O)[C@@]1(Cc2cccc(-c3ncc(F)cn3)c2)CC[C@H](NS(C)(=O)=O)C1` (relative stereo) [Example 17] it is 99%. The figure for `CON(C)C(=O)[C@@]1(Cc2cccc(-c3ncc(C)cn3)c2)CC[C@H](NS(C)(=O)=O)C1` (relative stereo) [Example 18] is 87%; for `CON(C)C(=O)[C@@]1(Cc2cccc(-c3ncc(C(F)(F)F)cn3)c2)CC[C@H](NS(C)(=O)=O)C1` (relative stereo) [Example 19] it is 45%. Take `COc1cnc(-c2cccc(C[C@]3(C(=O)N(C)OC)CC[C@H](NS(C)(=O)=O)C3)c2)nc1` (relative stereo) [Example 20]: the “Act. (%): activation rate” value amounted to 75%. The figure for `CON(C)C(=O)[C@@]1(Cc2cccc(-c3ncc(N(C)C)cn3)c2)CC[C@H](NS(C)(=O)=O)C1` (relative stereo) [Example 21, (1R*,3S*)-1-(3-(5-(Dimethylamino)pyrimidin-2-yl)benzyl)-N-methoxy-N-methyl-3-(methylsulfonamido)cyclopentane-1-carboxamide] is 48%.

`CON(C)C(=O)[C@@]1(Cc2ccc(C)c(-c3ncc(F)cn3)c2)CC[C@H](NS(C)(=O)=O)C1` (relative stereo) [Example 22]: the “Act. (%): activation rate” value is reported as 87%. The figure for `CON(C)C(=O)[C@@]1(Cc2ccc(F)c(-c3ncc(Cl)cn3)c2)CC[C@H](NS(C)(=O)=O)C1` (relative stereo) [Example 23] is 83%; for `CON(C)C(=O)[C@@]1(Cc2ccc(F)c(-c3ncc(C)cn3)c2)CC[C@H](NS(C)(=O)=O)C1` (relative stereo) [Example 24] it is 83%; for `CON(C)C(=O)[C@@]1(Cc2ccc(C(F)(F)F)c(-c3ncc(F)cn3)c2)CC[C@H](NS(C)(=O)=O)C1` (relative stereo) [Example 25] it is 63%.

`CON(C)C(=O)[C@@]1(Cc2cc(-c3ncccn3)ccc2F)CC[C@H](NS(C)(=O)=O)C1` (relative stereo) [Example 26]: the “Act. (%): activation rate” value was 99%.
